Measurements reported in US9439897B2, “Use of psoralen derivatives and combination therapy for treatment of cell proliferation disorders” (IMMUNOLIGHT, LLC, priority 2014, dated 2016).

Columns and labels:
[1] = test system: ErbB2+ breast cancer cell lines (BT474; SKBR3); experiment: Cell growth and viability assay (WST-1); type: cell-based, human
Protocol: (§1) UV irradiation was carried out in 6 or 96 well plate format in a UV Stratalinker 1800 (Statagene, LA Jolla, Calif.) at the UV doses indicated in the figures. Cell growth and viability assays were performed in a 96-well plate format in a final volume of 100 μl/well using the cell proliferation reagent WST-1 from Roche Diagnostics (Mannheim, Germany), as previously described. Details of the apoptosis assay have been previously described. Briefly, cells were treated in 12-well plates with 8MOP, UV irradiation, or lapatinib at the treatment conditions indicated in the Figure legends. Cells were harvested with trypsin-EDTA, and 5000 cells in final volume of 50 μl were sampled in 96-well microplates. Cells were directly stained with annexin V-PE and nexin 7-AAD in 1× Nexin Buffer in a 200 μl final reaction volume. After incubating at room temperature for 20 min, the reaction samples were analyzed in the Guava PCA-96-system (Guava Technology Inc. Hayward, Calif.).

[2] = test system: ErbB2; experiment: Western blot analysis of ErbB2 signaling in ErbB2+ breast cancer cells; type: cell-based, human
Protocol: (§2) Whole cell extracts were prepared by scraping cells off petri dishes, washing cell pellets 2× in phosphate buffered saline (PBS), and then re-suspending pellets in two-packed-cell volumes of RIPA buffer (150 mM NaCl, 50 mM Tris-HCl, pH 7.5, 0.25% (w/v) deoxycholate, 1% NP-40, 5 mM sodium orthovanadate, 2 mM sodium fluoride, and a protease inhibitor cocktail). Protein concentrations were determined using a modification of the Bradford method (Bio-Rad Labs, Hercules, Calif.). For Western blot analysis, equal amounts of proteins (25 to 50 μg) were resolved by either 7.5% or 4-15% gradient SDS polyacrylamide gel electrophoresis under reducing conditions as previously described. Proteins were transferred to nitrocellulose membranes and probed with primary antibodies specific for proteins of interest. After extensive washing, membranes were incubated with a secondary IRDye 800 conjugated anti-rabbit or mouse IgG, or Alexa Fluor 680 anti-rabbit IgG and proteins were visualized using the LI-COR Odyssey Infrared Imaging System (LI-COR, Inc., Lincoln, Nebr.).

[3] = test system: MCF7 cells; experiment: Cell growth and viability assay (WST-1); type: cell-based, human; conditions: PUVA, 2.5 and 5 μM 8MOP; compared with ErbB2+ lines
Protocol: as §1

[4] = test system: human foreskin fibroblast cell line (HFF); experiment: Cell growth and viability assay (WST-1); type: cell-based; conditions: PUVA, 2.5 and 5 μM 8MOP; compared with ErbB2+ lines
Protocol: as §1

[5] = test system: ErbB2+ breast cancer cells (BT474; SKBR3); experiment: Apoptosis assay (annexin V-PE / 7-AAD); type: cell-based, human
Protocol: as §1

[6] = test system: rBT474 and rSKBR3 cells; experiment: Cell growth and viability assay in lapatinib resistant cells; type: cell-based, human; conditions: PUVA; cells maintained in 1 μM lapatinib; dose-dependent
Source text: ErbB2+(BT474; SKBR3) and ErbB2 negative (MCF-7; T47D) human breast cancer cell lines, and the human foreskin fibroblast (HFF) cell line were obtained from the American Type Culture Collection (Manassas, Va.). Lapatinib resistant breast cancer cells (rBT474; rSKBR3) were generated and maintained in culture as previously described. Cells were maintained in RPMI-1640 supplemented with 10% fetal bovine serum and L-glutamine from GIBCO (Grand Island, N.Y.) growing in a humidified atmosphere of 5% CO2 at 37° C. IRDye 800 conjugated affinity purified anti-rabbit IgG and anti-mouse IgG were from Rockland (Gilbertsville, Pa.). Alexa Fluor 680 goat anti-rabbit IgG were purchased from Molecular Probes (Eugene, Oreg.). Anti-PARP (Poly (ADP-ribose) Polymerase) monoclonal antibody was from BD PharMingen (San Jose, Calif.). 8-Methoxypsoralen (8MOP) and the 4G10 anti-phosphotyrosine (p-tyr) antibody were purchased from Sigma-Aldrich (St. Louis, Mo.). Monoclonal antibodies to c-ErbB2 and EGFR were purchased from Neo Markers (Union City, Calif.). […]
UV irradiation was carried out in 6 or 96 well plate format in a UV Stratalinker 1800 (Statagene, LA Jolla, Calif.) at the UV doses indicated in the figures. […] After incubating at room temperature for 20 min, the reaction samples were analyzed in the Guava PCA-96-system (Guava Technology Inc. Hayward, Calif.).

[7] = test system: EGFR, ErbB3, Akt, PARP in rBT474 and rSKBR3; experiment: Western blot analysis in lapatinib resistant cells; type: cell-based, human
Protocol: as §2

[8] = test system: T47D cells; experiment: Growth and apoptosis in T47D and p85ErbB2 transfected T47D cells; type: cell-based, human
Protocol: as §1
(§3) The c-terminal fragment (p85^ErbB2) was generated based on ErbB2 open reading frames and sub-cloned into the pcDNA 3.1 (+) as previously described. HER2 negative T47D breast cancer cells were transfected with the p85 expressing vector using the Lipofectamine™ 2000 Reagent from Invitrogen (Carlsbad, Calif.) as previously described. […]

[9] = test system: p85^ErbB2; experiment: Western blot of phospho-p85ErbB2 in stably transfected T47D cells; type: cell-based, human; conditions: p85 expressing T47D cells; 5 μM lapatinib or 5 μM 8MOP 4 hr, then UV irradiation
Protocol: as §2, §3

In the case of `Cc1c2occc2cc2c1oc(=O)c1cnccc12` [7-methylpyridopsoralen], the “growth and viability of ErbB2+ breast cancer cells” value ([1]; upon photo-activation (UVA irradiation), 72 hr, BT474 and SKBR3) is reported as “significantly inhibited” and the “phosphorylated and total ErbB2 protein expression” value ([2]; upon photo-activation (UVA irradiation)) is reported as “inhibition”.
`COc1c2occc2cc2ccc(=O)oc12` [8MOP, 8-Methoxypsoralen] was tested, and the cell viability ([1]; 8MOP alone, no UV irradiation) was “relatively little effect”, the “growth and viability of ErbB2+ breast cancer cell lines” value ([1]; PUVA: 8MOP 4 hr pre-treatment, UVA irradiation (2J), 72 hr, dose-dependent) was “significantly inhibited” and the “growth and viability of MCF7 cells” value [3] was “relatively less effect”. For the same compound, the “growth and viability of HFF cells” value [4] was “relatively less effect”, the apoptosis ([5]; PUVA: 8MOP + UVA irradiation (2J), 72 hr) was “induction of apoptosis” and the ErbB2 signaling ([2]; 8MOP alone, no UV irradiation) was “relatively little effect”. The “phosphorylated forms of Akt and Erk1/2” value ([2]; PUVA (8MOP + UVA)) was “inhibited”, the “steady-state protein levels of phosphorylated ErbB2” value ([2]; PUVA (8MOP + UVA), dose-dependent) was “reduced” and the “total ErbB2 protein levels” value ([2]; higher doses of PUVA therapy) was “reduced”. For the same compound, the “tumor cell growth and viability” value [6] was “significantly reduced”, the PARP cleavage product ([7]; PUVA-treated lapatinib resistant tumor cells) was “increased” and the “expression of phosphorylated EGFR (Y992), ErbB3 (Y1197) and Akt (T308)” value ([7]; PUVA-treated rBT474 and rSKBR3) was “reduction”. The “total EGFR and ErbB3 protein expression” value ([7]; PUVA-treated rBT474 and rSKBR3) was “markedly reduced”, the “antitumor effect (growth)” value ([8]; T47D cells transfected with empty vector alone) was “antitumor effect” and the tumor cell apoptosis ([8]; p85 expressing T47D cells) was “triggering tumor cell apoptosis”. For the same compound, the p85ErbB2 phosphorylation [9] was “markedly inhibited”.
In the case of `CS(=O)(=O)CCNCc1ccc(-c2ccc3ncnc(Nc4ccc(OCc5cccc(F)c5)c(Cl)c4)c3c2)o1` [lapatinib], the p85ErbB2 phosphorylation [9] is reported as “not inhibited”.
`CCOc1cc2ncc(C#N)c(Nc3ccc(OCc4ccccn4)c(Cl)c3)c2cc1NC(=O)/C=C/CN(C)C` [neratinib] was tested, and the cell viability ([1]; combination of 8-MOP, UVA irradiation and neratinib, each at sub-lethal doses) was “significantly enhanced inhibition”, the “apoptosis in ErbB2+ breast cancer cells” value ([5]; neratinib at sub-lethal doses combined with PUVA) was “significantly increased” and the “total ErbB2 and ErbB3 protein expression” value ([2]; neratinib in combination with UVA irradiation alone, more pronounced in SKBR3) was “further loss”. The “p-Akt (S473) expression” value ([2]; neratinib treatment alone) was “loss” and the “total ErbB2 and ErbB3 protein levels” value ([2]; neratinib treatment alone) was “marked reduction”.
